Laboratory results reported in ChEMBL document CHEMBL3507680, “University of Dundee, Gates Library screen for HepG2 cell viability”.

Assay: Human HepG2 cell viability assay in 384 well format
Type: toxicity, cell-based
Set-up: dose 125 nL, time 70.5 hour; concentration not given beside the values
Conditions: HepG2 cells, read-out: Inhibition

Compound	cytotoxicity at 70.5 h
O=C(Nc1ccnn1Cc1ccccc1Cl)C1CCS(=O)(=O)C1 (centres undefined)	-17%
COc1ccc(F)c(CN2CC(=O)N(c3ccccc3C)CC2C)c1 (centres undefined)	-7.03%
Cc1nnc(CCNC(=O)C2CC(=O)N(C(C)(C)C)C2)s1 (centres undefined)	26.2%
Cc1noc(C)c1C(=O)NCCN1CCN(S(C)(=O)=O)CC1	-1.17%
NS(=O)(=O)N1CCc2ccc(NC(=O)Cc3ccc(F)cc3)cc21	6.47%
CCC(C)CS(=O)(=O)NC(=O)C1CCC1 (centres undefined)	21.3%
CCOC(=O)NC(C(=O)NCc1ccc(N2CCCCC2)nc1)C(C)C (centres undefined)	-8.83%
COCCN1CC(Nc2nc(C3CCCC3)nc3c2cnn3C)CC1=O (centres undefined)	18.4%
CC(C)NC(=O)CS(=O)(=O)Cc1cc(Cl)c2c(c1)OCCO2	-1.77%
COc1coc(C(=O)Nc2nc(-c3ccncc3)cs2)cc1=O	-11.9%
O=C(c1ccncc1)N1CCOC2(CCCN(c3nncs3)C2)C1 (centres undefined)	-0.0919%
Cc1ccc2c(n1)N(C)CCN(Cc1ccco1)C2	-1.42%
CC(C)N1CCC2(CC1)C(=O)N(c1cccnc1)c1ccc(F)cc12	-0.653%
Cc1ccc(NC(=O)Nc2c[nH]c(=O)[nH]c2=O)c(Cl)c1	-8.13%
CC(Nc1nccc(CCC(F)(F)F)n1)c1nc(-c2ccncc2)no1 (centres undefined)	-13.3%
CN1CCN(c2ccccc2CNC(=O)CSC(F)(F)F)CC1	-6.98%
CC(C)c1nccn1-c1cncc(C2CCCN2Cc2cccnc2)n1 (centres undefined)	-1.69%
COc1cccc(COC(C)C(=O)NCc2nnc3n2CCC3)c1 (centres undefined)	-1.81%
O=C(NC1CC1)c1cccc(Oc2ccc3nncn3n2)c1	-4.61%
CC(C)Cc1cc(CC2(NCc3ccco3)COC2)no1	-3.13%
Cc1cc(C)c2nc(CN3CC[C@@H](O)C3)cc(O)c2c1	-4.35%
CC(C)CNC(=O)[C@H]1CCS(=O)(=O)[C@@H]2CN(Cc3cccc(Cl)c3)C[C@H]12	24.3%
COc1ccc(C)cc1-n1cnnc1C1CC(=O)N(C)C1 (centres undefined)	-4.76%

Compound	cytotoxicity at 70.5 h
O=S(=O)(N1CCCCC1)N1CCc2nc(C3CCNCC3)ncc2C1	-13.5%
CS(=O)(=O)c1ccc(CN2CCCC3(C2)C(=O)Nc2ccccc23)cc1 (centres undefined)	24.9%
c1ccc(CCCN2CCOC(Cn3cccn3)C2)cc1 (centres undefined)	-6.46%
Cc1cc(C(=O)N2CCC3(CC2)COCCN(c2cccnc2)C3)[nH]n1	-3.67%
CCN(C(=O)c1ccc2nnc(C3CCN(S(C)(=O)=O)C3)n2c1)C(C)C (centres undefined)	-9.62%
CNS(=O)(=O)CCNC(=O)c1coc(COc2ccc(F)cc2)n1	-4.33%
O=C(NCCCn1cncn1)NCC(c1ccco1)N1CCCCC1 (centres undefined)	-18.7%
CC(C)n1cnnc1C1CCCN(S(=O)(=O)CC2CCCC2)C1 (centres undefined)	-106%
Cc1cc(-c2nnn(CCC(N)=O)n2)ccc1F	-9.65%
CNc1nc(CNC(=O)Nc2ccccc2SC)cs1	3.31%
CN1CCNC(Cc2ccc(-c3ccccc3)cc2)C1=O (centres undefined)	21.5%
Cc1cc(NC(=O)CN2CCOC(Cn3cccn3)C2)n(C)n1 (centres undefined)	8.66%
CC1(C)CC(N(Cc2ccccc2)Cc2c[nH]cn2)CC(C)(C)N1	2.11%
CC1CCN(CC2(O)CCCN(Cc3cccc(F)c3F)C2=O)CC1 (centres undefined)	1.43%
Cc1cccc(CN2C[C@@H]3CN(C(=O)c4ccco4)C[C@@H]3C2=O)c1	-1.41%
O=C(NCC1CC1)C1CN(C(=O)c2cccnc2)CC12CCOCC2 (centres undefined)	-7.11%
CCCc1n[nH]c(C2CN(C(=O)c3ccc(C)[nH]c3=O)CCO2)n1 (centres undefined)	15.4%
c1ccc(C2(NCC3CNc4ccnn4C3)CCC2)cc1 (centres undefined)	-2.65%
Cc1nc(C(NC(=O)c2cc(C(C)C)[nH]n2)c2ccccc2)n[nH]1 (centres undefined)	-11.7%
CC(=O)N(Cc1ncc(C)o1)C1CCN(Cc2nnc(C3CC3)o2)C1 (centres undefined)	10%
O=C(c1cc(C2CC2)[nH]n1)N1CCN(Cc2ccc(Cl)cc2)CC1	12.5%
O=C(O)CCn1ccc(=O)c2cc(F)ccc21	-11.9%
CN1CCC(CNC(=O)c2ccc3cccc(Cl)c3n2)C1 (centres undefined)	-6.3%

Compound	cytotoxicity at 70.5 h
O=C(Cn1cnc(-c2ccccc2)cc1=O)Nc1ccncc1	-9.96%
Cc1ccsc1CN(C)c1cc(N2CCOCC2)ncn1	-2.06%
OC[C@@H]1CCCN1Cc1cn(C2CCN(C3CCCC3)CC2)nn1	-4.14%
CN(C)CCNC(=O)c1ccc2ccc(N(C)CC3CC3)n2c1	-0.944%
Cc1ccc(-c2ncc(C(=O)NS(C)(=O)=O)s2)c(C)c1	-1.13%
O=C1NCC(C(=O)Nc2ncc(Cc3ccc(F)cc3)s2)N1 (centres undefined)	-3.14%
CCc1ncncc1C(=O)N1CCCC(n2nc(C)nc2C)C1 (centres undefined)	-1.23%
CC(C)SCC(=O)NCc1cc2n(n1)CCCN(C1CCCCC1)C2	25.3%
COc1ccc(CN2CCN(c3nccnc3OC)CC2=O)cc1	-4.78%
O=C(NCc1nc[nH]n1)c1cc(COc2cccc(F)c2)[nH]n1	11.1%
Cc1ccc2c(c1)c(CNC(=O)C1CCN(C(C)C)CC1)nn2C	-14.4%
CN1CCN(C(=O)[C@H]2C[C@@H]3CN(c4ncc(F)cn4)C[C@@H]3N2C)CC1	-8.27%
OCC1(NCc2cccc(-n3cccn3)c2)CCOCC1	-1.42%
CN(Cc1ccccc1OC(F)(F)F)C(=O)C1CC1	-7.05%
COc1ccc(CNCCc2cccc(C(N)=O)c2)cc1O	-6.24%
CC(C)COc1cncc(N2CCCN(c3ncccn3)CC2)n1	-7.71%
CN1CCC(c2cnc(NCc3nccn3C)cn2)CC1	17.9%
CN(C)CCOCC1CN(C(=O)c2cccn2C)Cc2ccnn2C1 (centres undefined)	8.36%
COCCN1CC2(CCN(Cc3ccco3)CC2)c2ccccc21	4.26%
CC(=O)N1[C@H](Cn2cncn2)C[C@@H]2CN(CC3CC3)CC[C@@H]21	-1.99%
Cc1cc(C(=O)NCC2CCCC2)c(C)n1-c1cccnc1	-6.04%
CCc1noc(CN(CC)C(=O)C2CC(=O)N(Cc3ccncc3)C2)n1 (centres undefined)	35.2%
COc1c(C2CCCN2C(=O)c2nccnc2N)c(C)nn1C (centres undefined)	-13%

Compound	cytotoxicity at 70.5 h
CS(=O)(=O)c1cccc(S(=O)(=O)NC(=O)c2cscn2)c1	-4.27%
COCC(=O)Nc1ccc(-c2noc([C@@H]3CCCN3CC(C)C)n2)cn1	10.2%
CCC(=O)N1CCC2(CCN(Cc3cccc(F)c3)CC2)CC1	-1.29%
OCC(O)CN1CCc2onc(-c3ccc(C(F)(F)F)cc3)c2C1 (centres undefined)	-8.17%
O=C(c1cscn1)N1C[C@H](OCc2cccnc2)[C@H]2COC[C@H]21	-5.24%
CCOCc1cncc2c1CCN(S(=O)(=O)c1cccc(C)c1)C2	-4.1%
CCOc1ncccc1NC(=O)c1cccs1	-10.3%
CC(C)(C)c1ccc(C(=O)NCCCNC(=O)c2cnccn2)cc1	-3.26%
CN(C)c1cc(NCc2cnc3n2CCN(CC2CC2)CC3)ncn1	2.24%
Cn1cc(-c2c(C#N)c(N)nc3c2CCc2[nH]ccc2-3)cc1C#N	16.7%
c1n[nH]cc1CCCN1CCC(OC2CCCCC2)CC1	0.00847%
CCc1nnc(NCc2cccc(OC)c2OC)o1	8.49%
O=C(COc1coc(CN2CCCCC2)cc1=O)c1ccc(Cl)cc1	-23.2%
CCC(C)NC(=O)CS(=O)(=O)Cc1cc(Cl)c2c(c1)OCCCO2 (centres undefined)	-5.29%
CC(=O)N1C[C@@H]2CC[C@H](C1)N(S(=O)(=O)c1cc(F)ccc1C)C2	-10.6%
Cc1ccoc1C(=O)N1CC[C@H]2OCC[C@@]2(COCc2ccncc2)C1	-5.41%
CC(C)c1ccc(NC(=O)c2ncc(C(N)=O)cc2Cl)cc1	-86.1%
CC(C)c1nn(C)c(Cl)c1CNC1CCOc2ccccc21 (centres undefined)	-2.92%
CCCN1CCC(NC(=O)c2csc(C)c2-c2ccc(C)cc2)CC1	-0.127%
Cc1cnn(CCNCc2csc(-c3ccco3)n2)c1	18%
N#CCCCN1CCCC1Cc1ccccc1 (centres undefined)	-3.84%
CC(C)(CN)NS(=O)(=O)c1cccc(F)c1F	9.16%
CC(C)n1nc2c(cc1=O)CN(c1ncnc3ccccc13)CC2	-1.82%

Compound	cytotoxicity at 70.5 h
CCOc1ccccc1OC1CCN(C(=O)c2c[nH]nn2)CC1	-0.281%
CC(C)NS(=O)(=O)c1cc(C(=O)O)cc(-n2cc3c(n2)CCC3)c1	-0.272%
CC(=O)N1CCCc2sc(C(=O)NC3CC3)nc21	-6.9%
CN1CCN(C(CNC(=O)c2ccc(Cl)cc2F)c2cccs2)CC1 (centres undefined)	42.7%
CC1CCN(C(=O)c2cccc(CN3CCOCC3)c2)CC1	-5.87%
CSc1nccn1-c1cccc(C(=O)NCC(F)(F)F)c1	-0.984%
Cc1ccc(NC2CCN(C(=O)c3ccncc3)CC2)nn1	-12.4%
CCn1c(CN(C)C)nnc1C1CCN(Cc2ccc(Cl)c(F)c2)CC1	-6.05%
Cc1ccccc1CN(C)C(C(N)=O)c1ccccc1 (centres undefined)	-16.6%
CCc1cc(=O)n(CC(=O)N2CCC(C)CC2)c(-c2ccccc2)n1	-10.3%
CC(C)NC(=O)N1CC(=O)c2sc(NC3CCCCC3)nc2C1	3.79%
CCN(CC(=O)NC(C)(C)C)Cc1cccc2c1OCCO2	-11.6%
CCOC(=O)c1sc(NC(=O)c2cc(=O)c(OC)c[nH]2)nc1C	-8.8%
Cc1ccc(C(C(=O)NCc2cc(C)[nH]n2)N(C)C)cc1 (centres undefined)	-8.58%
COc1ccc2c(c1)CCCC2CC(=O)O (centres undefined)	-19.3%
Cc1ccc(CN2CCC3(CCCC(=O)N3)CC2)s1	-3.64%
Cc1ccc(CN2CCC3(C2)C(=O)N(CC2CC2)c2ccccc23)s1 (centres undefined)	-8.57%
O=C(Nc1cccc(Cn2cccn2)c1)N1CCCC(N2CCCC2)C1 (centres undefined)	-4.22%
Cc1ccccc1S(=O)(=O)Cc1nsc(N(C)C)n1	0.131%
O=S1(=O)CCC(n2cc(CNc3ccccc3Br)cn2)C1 (centres undefined)	31.4%
CN1CCN(Cc2cn3c(n2)CN(CC2CC2)CC3)CC1	-2.8%
N#CCCn1cnc2c(F)cc(Br)cc2c1=O	-3.98%
